Source: patent US20040186166A1, “Cannabinoid analogs as peroxisome proliferator activated nuclear receptor gamma activators” (priority 2002, published 2004)

Key:
[1] = target: T1, human PPARδ (Homo sapiens, UniProt Q03181); experiment: Gal4-dependent MH100-Luc reporter, human PPARδ; type: cell-based
T1 construct: The Gal4-hPPAR LBD constructs were obtained from GlaxoSmithKline; host or cells: HEK293
T1 sequence (Q03181 211-439 limits assumed): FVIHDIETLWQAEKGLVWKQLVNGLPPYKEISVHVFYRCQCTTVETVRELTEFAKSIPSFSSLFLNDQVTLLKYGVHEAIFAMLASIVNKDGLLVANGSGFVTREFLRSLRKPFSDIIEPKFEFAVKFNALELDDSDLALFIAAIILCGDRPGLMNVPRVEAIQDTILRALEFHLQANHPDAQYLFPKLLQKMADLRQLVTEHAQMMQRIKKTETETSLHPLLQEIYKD
Description: The pGEX-DRIP205 (527˜970) was obtained from the Sloan-Kettering Cancer Center. The Gal4-hPPAR LBD constructs were obtained from GlaxoSmithKline, Research Triangle Park, NC. The IL8-Luciferase reporter was obtained from Celgene, San Diego, Calif. The plasmids mPPARα, mPPARγ1, mPPARδ , and hRXRα were in the pCMX vector (Umesono et al., Cell 65:1255-1266, 1991).
For PPARγ activation assay, HEK293 cells were plated in 12-well cell culture plates and maintained in Dulbecco's modified Eagle's medium (DMEM) supplemented with 10% fetal bovine serum (FBS) at 37° C. under 5% CO2. […] The average normalized luciferase activity was determined via triplicate experiments. […]
To further confirm activation of PPARγ by AJA, and also to determine PPARγ species specificity, the ability of AJA to activate the chimeric Gal4-DBD/PPAR fusion proteins on a Gal4-dependent MH100-Luc reporter was assessed (FIG. 4A). The PPARs were expressed as Gal4 DBD fusion proteins, which bind to the UAS promoter containing 4 copies of a synthetic Gal4 binding site upstream of the minimal thymidine kinase (TK) promoter. […] Transfected cells were treated with increasing concentrations of AJA from 10-60 μM and the luciferase activities were determined in triplicate experiments. […]

[2] = tested on: PPARγ2 and aP2 gene expression in 3T3 L1 cells; experiment: RT-PCR of adipocyte-specific genes; type: cell-based; details: versus vehicle control
Description: The adipocyte differentiation assay was performed as described by Mukherjee et. al. (Mol Endocrinol 14: 1425-33, 2000). The 3T3 L1 cells (American Type Culture Collection) were cultured in DMEM media supplemented with 10% calf serum. Two days after reaching confluence, cells were treated with AJA, GW347845, or vehicle (0.1% DMSO) in the presence of 10 μg/ml insulin every other day. After 10 days of treatment with AJA or 7 days with GW347845 at confluence, cells were fixed and stained with Oil Red O (Sigma). For RT-PCR, total cellular RNAs were isolated by TRIzol (Gibco). Reverse transcriptase polymerase chain reaction (RT-PCR) was performed using the superscript first-strand synthesis kit (Invitrogen). After first-strand cDNA was synthesized by use of oligo (dT), cDNA was amplified by PCR. The forward primers and reverse primers used in the amplifications were 5′-GCTGTTATGGGTGAAACTCTGGGAG-3′(SEQ ID NO: 1), and 5′-CTTCATGAGGCCTGTTGTAGAGC-3′ (SEQ ID NO:2), for PPARγ2, 5′-GAGCAAATGGAGTTCCCAGATG-3′ (SEQ ID NO: 3), and 5′-GCAAACAATGGGAATAGTTCACAGTAG-3′ (SEQ ID NO: 4), for aP2, and 5′-GACCACAGTCCATGCCATCAC-3′(SEQ ID NO: 5), and 5′-CATACCAGGAAATGAGCTGAC-3′ (SEQ ID NO: 6), for GAPDH. PCR amplifications were performed in 50 μL volume with Taq DNA polymerase for 30 cycles.
To confirm that AJA and GW347845 induce 3T3 L1 cell differentiation into adipocytes, the expression levels of the adipocyte-specific genes PPARγ2 and aP2 were measured by RT-PCR. Total RNA was isolated after AJA or GW347845 treatment, and compared with vehicle control. Reverse transcription was conducted and the relative amounts of PPARγ2 and aP2 transcripts were measured by PCR reactions using primer sets specific to each gene. PCR products were analyzed on 1% agarose gel and stained with Ethidium Bromide. […] As a control for the induction specificity and the PCR amplification reaction, the expression levels of GADPH were measured in all samples, and found not affected by any treatment.

Structure (SMILES): CCCCCCC(C)(C)c1cc(O)c2c(c1)OC(C)(C)[C@@H]1CC=C(C(=O)O)C[C@@H]21 [AJA, dimethylheptyl-THC-11-oic acid]
- activation of human PPARδ [1]: did not activate
- PPARγ2 gene expression [2]: enhanced PPARγ2 and aP2 gene expression significantly
- aP2 gene expression [2]: enhanced PPARγ2 and aP2 gene expression significantly
